Measurements published in patent publication US10314804B2, “Composition containing norbixin for protecting cells of the retinal pigment epithelium” (BIOPHYTIS, priority 2015, dated 2019).
“Also recorded” adds a separate entry of the source. Read-outs that look alike come from different tables or passages of the source. Blank lines part the entries; values can stand above or below the molecule they belong to.

Columns and labels:
neuroganglion cells = details: Yamauchi et al., 2011; cited from earlier work
[1] = tested on: primary cultures of adult pig RPE; details: cited from earlier work; for photoprotective activity on RPE cells in earlier tests (FR 11 54172): 0.1 μM, 1 μM and 10 μM
[2] = tested on: primary cultures of adult pig RPE; experiment: in vitro photoprotection test: RPE cells with A2E, blue light illumination, cell survival; type: cell-based; details: 20 μM (extract diluted to provide 20 μM of bixin), FIG. 1
Procedure: The term “blue radiation” is intended to mean the radiation corresponding to the blue band of the visible light spectrum, that is to say having a wavelength of between 435 and 490 nm. This model uses primary cultures of adult pig RPE. The cell survival is quantified by means of a cell viability test. At −48 h, the compounds to be tested (in 5 mM solution in DMSO) are added so as to obtain final concentrations of 1 to 20 μM), then at −19 h, A2E is added (final concentration 30 μM) and the cells are irradiated (time 0 h). 24 h later, the cell survival is measured. The acquisition of the images and also the processing thereof are carried out by means of a fluorescence microscope controlled by the Metamorph software and of a dedicated quantification program. The experiments are carried out on 96-well microplates in quadruplicate and the experiment is reproduced a minimum of four times. The results are expressed in the form of a ratio representing the number of live cells in the wells treated with the molecules to be tested, divided by the number of live cells in the control wells (treated with the dilution medium without A2E).

[3] = bioavailability of bixin and norbixin, plasma analysis; type: in vivo, C57Bl/6 mice; details: for Cmax: 50 mg/kg; for AUC(0-t): read-out: AUC 0-24 h; for detection in plasma over time: after bixin ingestion
Procedure: Studies of the bioavailability of bixin and of norbixin were carried out in C57Bl/6 mice. The compounds were administered orally (50 mg/kg). Blood samples were taken after 0.25, 0.5, 1, 3, 6, 8 and 24 h and analyzed by HPLC-DAD (UV 460 nm)-MS/MS.

[4] = presence of norbixin in the eyes after intraperitoneal injection; type: in vivo, double KO mice (ABCA4−/−, RDH8−/−)
Procedure: The presence of norbixin in the eyes was investigated in double KO mice (ABCA4^−/−, RDH8^−/−) 3 hours after intraperitoneal injection of norbixin (10 mg/kg). The eyes of 6 animals were dissected and the samples were extracted with acetonitrile, pooled and then analyzed by HPLC-MS/MS (FIG. 4), which made it possible to specifically detect the presence of norbixin in the RPE and the retina (table 2).
Glucuronidation had also been described in the case of crocetin (Asai et al., 2005).

[5] = tested on: double KO mice (ABCA4−/−, RDH8−/−); experiment: photoprotective activity by intravitreal injection, blue light exposure; type: in vivo
Excerpt: A genetically modified mouse model developed by Maeda et al. (2008) was used to test the photoprotective activity of norbixin. In this mouse model, two genes involved in the visual pigment cycle (ABCA4 and RDH8) are inactivated, which results in an early accumulation of A2E in the eyes (FIG. 5). This animal model is as a result similar to the human pathological condition, with of course its limits, associated with the differences in organization of the eyes between rodents and primates. 7-week-old mice were thus used to carry out unilateral intravitreal injections of norbixin (in order to obtain a final concentration in the vitreous body of 130 μM). After 24 h in the dark, the mice were subjected to an exposure to blue light (4000 lux, 1 h).

rats [6] = experiment: rat blue light model, intraperitoneal injection; type: in vivo; details: 100 mg/kg i.p.
Procedure: The “rat blue light” model consists in subjecting the animals to a strong blue light for 6 hours in order to cause ocular damage that is assessed 7 days later by carrying out electroretinograms and then by histological analyses. An antioxidant compound, PBN (phenyl-N-tert-butylnitrone) is used as positive control (Ranchon et al., 2001; Tomita et al., 2005). The compounds of which it is sought to determine the photoprotective activity are injected (intraperitoneally) before and during the illumination phase. Said phase is carried out with Philips blue neon tubes (4.2 mW/cm^2) for 6 hours.
Three series of experiments were carried out with norbixin (100 mg/kg, four injections per rat of a solution at 50 mM in 9‰ NaCl, 4 rats/series) using PBN (phenyl-N-tert-butylnitrone, 50 mg/kg, solution at 20 mg/ml in 9‰ NaCl) as positive control.

[7] = tested on: double KO mice (ABCA4−/−, RDH8−/−); experiment: photoprotective activity by chronic oral administration (supplemented feed, 3 months); type: in vivo
Procedure: A feed containing 0.3 mg/g of pure norbixin was prepared and given to double KO mice (ABCA4^−/−, RDH8^−/−) for a period of 3 months.

[8] = cited from earlier work
rats [9] = details: cited from earlier work
[10] = C57Bl/6, mouse, plasma, po, Bixin ingestion (50 mg/kg), analyte as labelled
[11] = C57Bl/6, mouse, po, Bixin ingestion (50 mg/kg), plasma, analyte as labelled

Compound: CC(/C=C/C=C(\C)C(=O)O)=C\C=C\C=C(C)\C=C\C=C(/C)C(=O)O [crocetin, 8,8′-diapocarotene-8,8′-dioate]
protection against oxidative stress (neuroganglion cells): protects

Compound: O=c1oc2c(O)c(O)cc3c(=O)oc4c(O)c(O)cc1c4c23 [ellagic acid]
photoprotective effect on RPE cells in earlier tests (FR 11 54172) ([1]; 10 μM and 20 μM): advantageous photoprotective effect

Compound: CC(=C/C=C/C(C)=C/C=C/C=C(C)/C=C/C=C(C)/C=C/C(=O)O)/C=C/C(=O)O [norbixin]
protection of RPE cells against phototoxicity induced in the presence of A2E (cell survival) [2]: effectively protect
Tmax ([3]; Bixin ingestion (50 mg/kg), plasma, analyte as labelled): Norbixin 0.5 h
Cmax [3, 10]: 649 ng/mL
Cmax ([3]; C57Bl/6, mouse, plasma, po, Norbixin ingestion (50 mg/kg)): 12400 ng/mL
bioavailability ([3]; C57Bl/6, mouse, plasma, intraperitoneal injection (5 mg/kg) versus oral administration (50 mg/kg), FIG. 3b): 55%
AUC(0-t) [3, 11]: 1340 ng·h/mL
AUC ([3]; C57Bl/6, mouse, po, Norbixin ingestion (50 mg/kg), plasma): 41600 ng·h/mL
Tmax ([3]; C57Bl/6, mouse, po, Norbixin ingestion (50 mg/kg), plasma, read-out: Tmax): 30 min
detection in plasma over time ([3]; oral 50 mg/kg): no longer detected after 8 hours
Norbixin (ng/organ), Crystalline ([4]; 3 hours after i.p. 10 mg/kg, Crystalline): <LOQ
Norbixin (ng/organ), RPE ([4]; 3 hours after i.p. 10 mg/kg, RPE): 5.15 ng/organ
Norbixin (ng/organ), Retina ([4]; 3 hours after i.p. 10 mg/kg, Retina): 2.40 ng/organ
Norbixin (ng/organ), Total ([4]; 3 hours after i.p. 10 mg/kg, Total): 7.55 ng/organ
Norbixin (ng/organ), Vitreous humor ([4]; 3 hours after i.p. 10 mg/kg, Vitreous humor): <LOQ
conjugated forms in plasma and eyes ([4]; HPLC-MS/MS, FIG. 4): gives two monoglucuronides
elimination from the eye after intravitreal injection ([5]; 24 h after the intravitreal injection): virtually eliminated
electroretinogram (A- and B-waves) ([5]; intravitreal, 130 μM in vitreous body, blue light 4000 lux 1 h, 7 days later, FIG. 6): protective effect
thickness of the layer of external nuclei (photoreceptors), histology ([5]; intravitreal, 130 μM, FIG. 7): protective effect
electroretinograms (A-waves and B-waves) (rats [6]; four injections, blue light 6 hours, 7 days later, FIG. 8B): significant efficacity
survival of the photoreceptors, histology (rats [6]; FIGS. 9A and 9B): confirm the photoprotective action
accumulation of norbixin in the eyes ([7]; chronic treatment, feed, 3 months): no significant accumulation
A2E accumulation in the eyes ([7]; feed 0.3 mg/g, 3 months, FIG. 10): reduction in A2E accumulation
amplitude of the electroretinogram (ERG) ([7]; feed 0.3 mg/g, 3 months, FIG. 11): positive effect
daily intake that significantly slows down the retinal degeneration ([7]; mice, oral administration): 48 mg/kg of body weight
photoprotective activity on RPE cells in earlier tests (FR 11 54172) [1]: do not have any photoprotective activity
acceptable daily intake (ADI) ([8]; JECFA/67/FC): at most 0.6 mg/kg/day of body weight
daily intake with no observable adverse effect level in humans, equivalent ([8]; equivalent of rat NOAEL): 11 mg/kg
intake up to which no toxicity was observed (rats [9]; rat, in vivo): 20 mg/kg/day
no observable adverse effect level (NOAEL) (rats [9]; rats): 69 mg/kg/day of body weight

Cmax [3, 10]: 833 ng/mL
AUC(0-t) [3, 11]: 1670 ng·h/mL
Tmax ([3]; C57Bl/6, mouse, po, Bixin ingestion (50 mg/kg), plasma, analyte as labelled, read-out: Tmax): 30 min
detection in plasma over time ([3]; oral 50 mg/kg): no longer detected after 8 hours
conversion of ingested compound ([3]; oral 50 mg/kg): rapidly converted into norbixin
Compound: COC(=O)/C=C/C(C)=C\C=C\C(C)=C\C=C\C=C(C)\C=C\C=C(C)\C=C\C(=O)O [bixin, methylhydrogen 6,6′-diapocarotene-6,6′-dioate]
protection of RPE cells against phototoxicity induced in the presence of A2E (cell survival) [2]: effectively protect
photoprotective activity on RPE cells in earlier tests (FR 11 54172) [1]: do not have any photoprotective activity; also recorded: ineffective
